Assay results: PubChem BioAssay AID248 (DTP/NCI, 2004)
Where “and” joins values, the source holds several entries; their conditions need not be identical. Identical values can stand only once. Toxic doses and inconclusive results are not listed.

Test system: L1210 leukemia ip in BDF1 mice, survival T/C
Experiment: NCI In Vivo Anticancer Drug Screen. Data for tumor model L1210 Leukemia (intraperitoneal) in B6D2F1 (BDF1) mice
Conditions: endpoint: mean survival time, higher = longer survival
In short: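 Ratio derived from survival: compound-dosed mice over vehicle-dosed mice, all bearing a transplantable tumor.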

[1] = dose: 100.0 mg/kg/injection, schedule: Q04DX003 (ip), vehicle: saline with Tween-80
[2] = dose: 200.0 mg/kg/injection, schedule: Q04DX003 (ip), vehicle: saline with Tween-80

Question: `O=c1cc(CCl)[nH]nc1CCl` was tested. Which T/C (dose: 6.0 mg/kg/injection, schedule: Q04DX003 (ip), vehicle: saline with Tween-80) did it give?
Answer: 110 % of control

Question: And the T/C (dose: 9.5 mg/kg/injection, schedule: Q04DX003 (ip), vehicle: saline with Tween-80)?
Answer: 110 % of control

Question: And the T/C (dose: 14.5 mg/kg/injection, schedule: Q04DX003 (ip), vehicle: saline with Tween-80)?
Answer: 117 % of control

Question: And the T/C (dose: 22.0 mg/kg/injection, schedule: Q04DX003 (ip), vehicle: saline with Tween-80)?
Answer: 115 % of control and 124 % of control

Question: What about the T/C (dose: 25.0 mg/kg/injection, schedule: Q04DX003 (ip), vehicle: saline with Tween-80) of the same molecule?
Answer: 115 % of control

Question: What about the T/C (dose: 33.0 mg/kg/injection, schedule: Q04DX003 (ip), vehicle: saline with Tween-80) of the same molecule?
Answer: 124 % of control

Question: And the T/C (dose: 75.0 mg/kg/injection, schedule: Q04DX003 (ip), vehicle: saline with Tween-80)?
Answer: 113 % of control

Question: And the T/C [1]?
Answer: 111 % of control

Question: Which results are given for `O=C(Nc1ccc(Cl)c(Cl)c1)OC1C=CS(=O)(=O)C1` (stereo unspecified)?
Answer: T/C (dose: 100.0 mg/kg/injection, schedule: Q04DX003 (ip), vehicle: Klucel (hydroxypropylcellulose) (HPC)): 104 % of control; T/C (dose: 200.0 mg/kg/injection, schedule: Q04DX003 (ip), vehicle: Klucel (hydroxypropylcellulose) (HPC)): 104 % of control; T/C (dose: 400.0 mg/kg/injection, schedule: Q04DX003 (ip), vehicle: Klucel (hydroxypropylcellulose) (HPC)): 96 % of control

Question: Which T/C [1] does the source give for `CN(C)Cc1c[nH]c2ccsc12` here?
Answer: 98 % of control

Question: What about the T/C [2] of the same molecule?
Answer: 87 % of control

Question: Which T/C (dose: 75.0 mg/kg/injection, schedule: Q01DX001 (ip), vehicle: saline) does the source give for `CCCC[N+](C)(CCCC)CCCC` here?
Answer: 101 % of control

Question: How did the T/C (dose: 0.5 mg/kg/injection, schedule: Q01DX009 (ip), vehicle: Klucel (hydroxypropylcellulose) (HPC)) turn out when `COc1ccc(NC(=O)N(CCCl)N=O)cc1OC` was run?
Answer: 115 % of control

Question: What about the T/C (dose: 1.0 mg/kg/injection, schedule: Q01DX009 (ip), vehicle: Klucel (hydroxypropylcellulose) (HPC)) of the same molecule?
Answer: 123 % of control

Question: What about the T/C (dose: 1.2 mg/kg/injection, schedule: Q01DX009 (ip), vehicle: Klucel (hydroxypropylcellulose) (HPC)) of the same molecule?
Answer: 115 % of control

Question: And the T/C (dose: 1.8 mg/kg/injection, schedule: Q01DX009 (ip), vehicle: Klucel (hydroxypropylcellulose) (HPC))?
Answer: 113 % of control

Question: What about the T/C (dose: 2.5 mg/kg/injection, schedule: Q01DX001 (ip), vehicle: carboxymethylcellulose (CMC)) of the same molecule?
Answer: 118 % of control

Question: And the T/C (dose: 4.0 mg/kg/injection, schedule: Q01DX009 (ip), vehicle: Klucel (hydroxypropylcellulose) (HPC))?
Answer: 151 % of control and 152 % of control (2×)

Question: What about the T/C (dose: 5.0 mg/kg/injection, schedule: Q01DX001 (ip), vehicle: carboxymethylcellulose (CMC)) of the same molecule?
Answer: 118 % of control

Question: What about the T/C (dose: 6.0 mg/kg/injection, schedule: Q01DX009 (ip), vehicle: Klucel (hydroxypropylcellulose) (HPC)) of the same molecule?
Answer: 165 % of control

Question: What about the T/C (dose: 6.6 mg/kg/injection, schedule: Q01DX009 (ip), vehicle: carboxymethylcellulose (CMC)) of the same molecule?
Answer: 206 % of control

Question: And the T/C (dose: 9.0 mg/kg/injection, schedule: Q01DX009 (ip), vehicle: Klucel (hydroxypropylcellulose) (HPC))?
Answer: 220 % of control

Question: What about the T/C (dose: 10.0 mg/kg/injection, schedule: Q01DX009 (ip), vehicle: carboxymethylcellulose (CMC)) of the same molecule?
Answer: 123 % of control

Question: And the T/C (dose: 13.0 mg/kg/injection, schedule: Q01DX009 (ip), vehicle: Klucel (hydroxypropylcellulose) (HPC))?
Answer: 167 % of control and 190 % of control

Question: And the T/C (dose: 15.0 mg/kg/injection, schedule: Q01DX001 (ip), vehicle: carboxymethylcellulose (CMC))?
Answer: 168 % of control

Question: What about the T/C (dose: 15.0 mg/kg/injection, schedule: Q01DX009 (ip), vehicle: carboxymethylcellulose (CMC)) of the same molecule?
Answer: 106 % of control

Question: What about the T/C (dose: 20.0 mg/kg/injection, schedule: Q01DX001 (ip), vehicle: other) of the same molecule?
Answer: 227 % of control

Question: And the T/C (dose: 20.0 mg/kg/injection, schedule: Q01DX009 (ip), vehicle: Klucel (hydroxypropylcellulose) (HPC))?
Answer: 92 % of control

Question: What about the T/C (dose: 30.0 mg/kg/injection, schedule: Q01DX001 (ip), vehicle: carboxymethylcellulose (CMC)) of the same molecule?
Answer: 247 % of control

Question: What about the T/C (dose: 30.0 mg/kg/injection, schedule: Q01DX001 (ip), vehicle: other) of the same molecule?
Answer: 206 % of control

Question: What about the T/C (dose: 45.0 mg/kg/injection, schedule: Q01DX001 (ip), vehicle: other) of the same molecule?
Answer: 242 % of control

Question: And the T/C (dose: 60.0 mg/kg/injection, schedule: Q01DX001 (ip), vehicle: carboxymethylcellulose (CMC))?
Answer: 193 % of control

Question: For `CC#CC(=O)SCCNC(=O)CC`, which T/C (dose: 25.0 mg/kg/injection, schedule: Q01DX009 (ip), vehicle: saline with Tween-80) is on record?
Answer: 104 % of control

Question: And the T/C (dose: 50.0 mg/kg/injection, schedule: Q01DX009 (ip), vehicle: saline with Tween-80)?
Answer: 96 % of control

Question: What about the T/C [1] of the same molecule?
Answer: 103 % of control

Question: What about the T/C [2] of the same molecule?
Answer: 91 % of control

Question: Which T/C (dose: 100.0 mg/kg/injection, schedule: Q01DX009 (ip), vehicle: saline) does the source give for `O=C(O)COc1ccc(Cl)cc1Cl` here?
Answer: 100 % of control

Question: What about the T/C (dose: 200.0 mg/kg/injection, schedule: Q01DX009 (ip), vehicle: saline) of the same molecule?
Answer: 100 % of control

Question: For `CC1=C[S+](c2ccccc2)c2cccc3cc4ccccc4c1c23` (stereo unspecified), which T/C (dose: 2.5 mg/kg/injection, schedule: Q01DX009 (ip), vehicle: saline with Tween-80) is on record?
Answer: 119 % of control
